Data taken from patent publication US8618111B2, “5-alkynyl-pyrimidines” (Boehringer Ingelheim International GmbH, priority 2010, dated 2013).

Experiments:
[1] = system: PC3 (human prostate carcinoma cell line) cells; experiment: PC3 proliferation test; assay type: cell-based; details: PC-3, 72 h, 3 days incubation, DNA dye fluorescence
Method: The test is based on measurement of cellular DNA content via fluorescent dye binding. Because cellular DNA content is highly regulated, it is closely proportional to cell number. The extent of proliferation is determined by comparing cell counts for samples treated with drugs with untreated controls.
PC3 (human prostate carcinoma cell line) cells are sown in microtitre plates and incubated overnight in culture medium at 37° C. and 5% CO2. The test substances are diluted stepwise and added to the cells such that the total volume is 200 μL/well. Cells to which diluent, but not substance, is added serve as controls.

[2] = target: mTOR (Homo sapiens (Human), UniProt P42345); experiment: mTOR kinase activity assay (phosphorylation status of mTOR substrate 4E-BP1; TR-FRET); assay type: biochemical; details: GFP-4E-BP1 substrate, 8 μM ATP
Method: mTOR Kinase Activity Assay
(Phosphorylation Status of mTOR Substrate 4E-BP1; TR-FRET)
The mTOR kinase TR-FRET assay utilizes a physiologically relevant protein substrate for mTOR (4E-BP1, labeled with an acceptor fluorophore (Green Fluorescent Protein) and paired with a corresponding Tb-labeled phospho-specific antibody.
The assay itself is divided into two phases: the reaction phase and the detection phase. In the reaction phase, all components required for the kinase reaction are added to the well, including the labeled protein substrate. The reaction is allowed to incubate for 60 minutes. After the reaction, EDTA is added to stop the kinase reaction, and terbium-labeled antibody is added to bind phosphorylated product. Because the terbium chelate is stable at the EDTA concentrations used to stop a kinase assay, the antibody and EDTA can be pre-mixed prior to addition to minimize pipetting steps. Binding of the terbium labeled antibody to the fluorophore-labeled phosphorylated product brings the terbium and GFP into proximity, resulting in an increase in TR-FRET. In the presence of an inhibitor, formation of phosphorylated product is reduced, and the TR-FRET value is decreased.
• GFP-4E-BP1 substrate; Invitrogen order no. PV4759 • Lanthascreen Tb-anti-p4E-BP1 (pThr46) Antibody Kit; Invitrogen order no. PV4758 • FRAP1 (mTOR) kinase; Invitrogen order no.
400 nM GFP-4E-BP1, 8 μM ATP, ˜150 ng/mL mTOR, 50 mM HEPES pH 7.5, 0.01% Polysorbate 20, 1 mM EGTA, 10 mM MnCl2, and variable amounts of test compounds.
Note: Thaw and keep mTOR, the substrate, ATP, and the antibody on ice prior to making working dilutions. Working dilutions of these components can be kept at room temperature for short periods of time the day of use. • 1. Add 2 ml of 5× Assay Buffer to 8 ml water to prepare 10 ml of 1× Assay Buffer, wherein the concentration of 1× Assay Buffer is 50 mM HEPES pH 7.5, 0.01% Polysorbate 20, 1 mM EGTA, and 10 mM MnCl2. • 2. Prepare Antibody/EDTA Solution by first adding 2.75 μl of Tb-anti p4E-BP1 Antibody to 2397 μl of LanthaScreen™ TR-FRET Dilution Buffer. Then, add 100 μl of 0.5 M EDTA. • 3. […] Then, add 1.6 μl of mTOR (0.45 mg/mL). • 4. Prepare ATP Solution by adding 3.2 μl of 10 mM ATP to 1997 μl of 1× Assay Buffer. Serial Dilution of Inhibitors (16 Point Curve)
Inhibitors are serially diluted in DMSO, then diluted to a 4× working concentration with 1× Assay Buffer. • 1. Dispense 40 μl of DMSO to two adjacent columns of a 96 well plate per compound (e.g. columns 1 and 2). • 2. Add 10 μl of inhibitor stock (10 mM) to the first well of the first column (A1) and mix. • 3. Remove 10 μl from A1 and transfer to the adjacent well in the next column (B1) and mix. • 4. Remove 10 μl from B1 and transfer to the next well in the first column (B2) and mix. • 5. […] Remove 4 μl of diluted compounds and add to 96 μl of 1× Assay Buffer in a 96-well plate making 4× compound dilutions. Kinase Reaction • 1. Add 2.5 μl of 4X compound dilutions to a 384-well plate. • 2. […] Preincubate for […] at RT (shaker). • 5. Add 5 μl of ATP Solution to all wells to start reactions. • 6. Shake the assay plate on a plate shaker for 30 seconds. • 7. Incubate the assay plate for one hour at room temperature (20-25° C.). Stop Step and Fluorescence Detection • 1. Add 10 μl of Antibody/EDTA Solution to each well in columns 1-9. • 2. Shake the assay plate on a plate shaker for 30 seconds. • 3. Incubate the assay plate for one hour at room temperature (20-25° C.). • 4. Measure the GFP (FRET) and terbium (reference) emission signals on a fluorescence plate reader (e.g. Perkin Elmer Envision). Data Analysis • 1. Calculate the emission ratio for each sample by dividing the GFP (FRET) signal by the terbium (reference) signal. • 2.

[3] = target: PI3Kalpha (Homo sapiens (Human), UniProt P42336); experiment: Inhibition of PI3Kalpha-induced PIP-2 phosphorylation (filter-binding assay); assay type: biochemical; details: 33P-ATP
Method: Inhibition of PI3Kalpha-Induced PIP-2 Phosphorylation
Method Type: Filter-Binding-Assay
Aliquoted in desired amounts and stored at −80° C. Final assay concentration 25 ng/well.

Sequence of mTOR (P42345 1360-2549): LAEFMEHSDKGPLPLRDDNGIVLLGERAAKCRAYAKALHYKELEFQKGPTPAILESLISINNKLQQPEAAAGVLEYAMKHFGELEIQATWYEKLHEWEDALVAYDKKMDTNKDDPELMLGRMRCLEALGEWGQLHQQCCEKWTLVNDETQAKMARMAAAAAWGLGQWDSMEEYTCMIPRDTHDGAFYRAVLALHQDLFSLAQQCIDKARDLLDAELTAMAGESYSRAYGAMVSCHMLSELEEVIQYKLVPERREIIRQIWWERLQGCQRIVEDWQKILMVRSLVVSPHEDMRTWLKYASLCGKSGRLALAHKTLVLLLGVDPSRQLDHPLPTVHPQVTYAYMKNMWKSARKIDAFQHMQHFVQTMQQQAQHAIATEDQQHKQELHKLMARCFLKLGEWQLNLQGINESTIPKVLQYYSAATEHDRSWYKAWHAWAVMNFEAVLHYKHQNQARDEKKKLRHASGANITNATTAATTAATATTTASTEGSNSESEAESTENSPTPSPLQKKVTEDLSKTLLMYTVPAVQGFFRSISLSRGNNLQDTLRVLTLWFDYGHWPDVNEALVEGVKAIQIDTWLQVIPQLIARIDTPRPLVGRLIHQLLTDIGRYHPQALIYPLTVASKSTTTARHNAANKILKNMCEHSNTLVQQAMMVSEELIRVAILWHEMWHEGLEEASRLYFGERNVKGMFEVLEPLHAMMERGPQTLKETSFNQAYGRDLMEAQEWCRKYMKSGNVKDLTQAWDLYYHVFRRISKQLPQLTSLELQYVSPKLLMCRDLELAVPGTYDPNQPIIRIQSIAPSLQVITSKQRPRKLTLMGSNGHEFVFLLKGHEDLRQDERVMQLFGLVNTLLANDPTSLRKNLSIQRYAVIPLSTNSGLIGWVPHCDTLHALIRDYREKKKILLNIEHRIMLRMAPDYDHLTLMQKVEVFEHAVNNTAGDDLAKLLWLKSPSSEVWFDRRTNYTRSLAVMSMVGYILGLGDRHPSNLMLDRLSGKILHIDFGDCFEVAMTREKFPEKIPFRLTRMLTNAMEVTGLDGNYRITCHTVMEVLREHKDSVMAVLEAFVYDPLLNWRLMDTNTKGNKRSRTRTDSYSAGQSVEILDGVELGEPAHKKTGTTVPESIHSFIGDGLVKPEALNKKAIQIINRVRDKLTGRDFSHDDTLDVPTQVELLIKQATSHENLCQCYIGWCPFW
Sequence of PI3Kalpha (P42336 whole entry, species assumed): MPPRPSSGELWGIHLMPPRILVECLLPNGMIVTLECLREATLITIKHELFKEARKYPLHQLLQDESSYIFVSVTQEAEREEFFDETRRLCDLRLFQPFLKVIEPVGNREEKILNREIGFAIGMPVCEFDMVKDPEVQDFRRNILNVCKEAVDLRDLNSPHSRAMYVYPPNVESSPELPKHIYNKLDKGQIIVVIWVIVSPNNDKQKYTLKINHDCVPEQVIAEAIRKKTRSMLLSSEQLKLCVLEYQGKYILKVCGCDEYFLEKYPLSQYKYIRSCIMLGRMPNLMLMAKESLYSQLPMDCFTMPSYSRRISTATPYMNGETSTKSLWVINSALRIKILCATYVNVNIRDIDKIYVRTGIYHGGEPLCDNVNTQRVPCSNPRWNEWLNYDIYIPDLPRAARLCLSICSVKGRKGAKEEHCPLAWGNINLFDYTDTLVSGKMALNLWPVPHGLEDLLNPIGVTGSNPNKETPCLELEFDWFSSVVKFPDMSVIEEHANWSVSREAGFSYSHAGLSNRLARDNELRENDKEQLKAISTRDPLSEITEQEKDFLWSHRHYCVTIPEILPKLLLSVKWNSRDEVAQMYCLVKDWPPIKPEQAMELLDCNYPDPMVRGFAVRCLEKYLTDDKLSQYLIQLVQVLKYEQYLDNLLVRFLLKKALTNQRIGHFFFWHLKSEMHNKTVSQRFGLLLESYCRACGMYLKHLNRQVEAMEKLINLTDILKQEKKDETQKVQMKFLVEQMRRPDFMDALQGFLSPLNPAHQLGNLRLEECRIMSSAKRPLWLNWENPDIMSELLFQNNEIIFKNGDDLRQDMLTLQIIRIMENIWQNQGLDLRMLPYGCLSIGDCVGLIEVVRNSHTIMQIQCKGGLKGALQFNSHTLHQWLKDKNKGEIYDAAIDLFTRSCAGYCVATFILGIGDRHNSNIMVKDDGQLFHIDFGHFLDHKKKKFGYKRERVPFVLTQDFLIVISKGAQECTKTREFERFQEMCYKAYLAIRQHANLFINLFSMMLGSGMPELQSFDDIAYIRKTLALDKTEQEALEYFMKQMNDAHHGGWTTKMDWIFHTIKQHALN
Sequence of PI3Kalpha (P27986 whole entry partner, species assumed): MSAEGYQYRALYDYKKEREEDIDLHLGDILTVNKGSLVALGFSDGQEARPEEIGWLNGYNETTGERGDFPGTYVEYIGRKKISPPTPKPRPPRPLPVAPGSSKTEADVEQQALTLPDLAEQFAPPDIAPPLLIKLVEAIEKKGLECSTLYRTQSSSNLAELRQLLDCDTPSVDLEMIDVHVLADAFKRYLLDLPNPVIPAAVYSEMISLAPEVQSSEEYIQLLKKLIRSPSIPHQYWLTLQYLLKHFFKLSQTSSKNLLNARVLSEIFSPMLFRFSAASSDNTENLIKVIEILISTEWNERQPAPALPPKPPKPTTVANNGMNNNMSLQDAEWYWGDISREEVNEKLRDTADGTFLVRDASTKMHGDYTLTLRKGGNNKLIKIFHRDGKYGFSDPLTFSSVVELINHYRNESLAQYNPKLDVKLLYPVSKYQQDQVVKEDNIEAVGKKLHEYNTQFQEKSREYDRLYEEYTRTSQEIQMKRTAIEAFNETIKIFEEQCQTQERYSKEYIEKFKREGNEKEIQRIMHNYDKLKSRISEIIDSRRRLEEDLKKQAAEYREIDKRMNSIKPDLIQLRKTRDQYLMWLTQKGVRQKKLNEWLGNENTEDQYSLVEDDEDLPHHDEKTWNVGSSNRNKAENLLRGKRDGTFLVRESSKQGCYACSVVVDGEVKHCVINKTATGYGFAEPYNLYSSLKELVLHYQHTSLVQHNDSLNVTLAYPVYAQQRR

Compound	EC50 [1] [µM]	IC50 [2] [µM]	IC50 PI3Ka [3] [µM]
CCc1ncnc(N2CCC(O)(C(C)C)CC2)c1C#Cc1ccc(C)nc1 [Example B-35]	0.168	0.023	0.172
CCc1ncnc(N2CCC(OCCOC)CC2)c1C#Cc1ccc(N)nc1 [Example B-37]	0.148	0.036	0.089
CCc1ncnc(N2CCC(COC)CC2)c1C#Cc1ccc(N)nc1 [Example B-39]	0.05	0.019	0.087
CCc1ncnc(N2CCC(C(F)(F)F)CC2)c1C#Cc1ccc(N)nc1 [Example B-41]	0.019	0.009	0.201
CCc1ncnc(N2CCN(C3CC3)CC2)c1C#Cc1ccc(N)nc1 [Example B-51]	0.129	0.043	0.086
CC(=O)NC1CCN(c2ncnc(C)c2C#Cc2ccc(N)nc2)CC1 [Example B-25]	0.267	0.042	0.078
CCc1ncnc(N2CCN(C(=O)c3ccccc3)CC2)c1C#Cc1ccc(N)nc1 [Example G-5]	0.225	0.157	0.11
Cc1ncnc(N2CCC(O)(C3CCCCC3)CC2)c1C#Cc1ccc(N)nc1 [Example B-74]	0.195	0.03	0.098
Cc1ncnc(N2CCNC(=O)CC2)c1C#Cc1ccc(N)nc1 [Example B-10]	0.437	0.041	0.093
COCCC(=O)NCC1CCN(c2ncnc(C)c2C#Cc2ccc(N)nc2)CC1 [Example F-5]	0.141	0.018	0.069
Cc1ncnc(N2CCC3(CC2)OCCO3)c1C#Cc1ccc(N)nc1 [Example B-26]	0.027	0.01	0.06
Cc1ncnc(N2CCC(O)(C(F)(F)F)CC2)c1C#Cc1ccc(N)nc1 [Example B-32]	0.015	0.003	0.024
Cc1ncnc(N2CCC3(CC2)OCCCO3)c1C#Cc1ccc(N)nc1 [Example B-60]	0.075	0.006	0.014
Cc1ncnc(N2CCn3c(C)cnc3C2)c1C#Cc1ccc(N)nc1 [Example B-76]	0.233	0.097	0.06
Cc1ncnc(N2CCOC(C)(C)C2)c1C#Cc1ccc(N)nc1 [Example B-1]	0.112	0.105	0.046
Cc1ncnc(N2CCC3(CCNC3=O)CC2)c1C#Cc1ccc(N)nc1 [Example B-84]	0.126	0.019	0.032
CCc1ncnc(N2CCC(CO)CC2)c1C#Cc1ccc(N)nc1 [Example B-45]	0.046	0.01	0.058

Compound	EC50 [1] [µM]	IC50 [2] [µM]	IC50 PI3Ka [3] [µM]
CCc1ncnc(N2CCN(C(=O)c3ccccn3)CC2)c1C#Cc1ccc(N)nc1 [Example G-2]	0.138	0.09	0.047
CCc1ncnc(N2CCC(O)(c3ccccc3)CC2)c1C#Cc1ccc(N)nc1 [Example B-16]	0.034	0.007	0.091
CCc1ncnc(N2CCC(O)C(C)C2)c1C#Cc1ccc(N)nc1 (stereo not drawn) [Example B-64]	0.053	0.01	0.055
CCc1ncnc(N2CCC3(CC2)CC(=O)NC(=O)C3)c1C#Cc1ccc(N)nc1 [Example B-82]	0.077	0.005	0.038
CCc1ncnc(N2CCC(O)(CC)CC2)c1C#Cc1ccc(C)nc1 [Example B-33]	0.152	0.051	0.102
CCc1ncnc(N2CCN(C(=O)OC)CC2)c1C#Cc1ccc(N)nc1 [Example G-6]	0.106	0.101	0.052
CCc1ncnc(N2CCNC(=O)CC2)c1C#Cc1ccc(N)nc1 [Example B-54]	0.211	0.014	0.133
CCc1ncnc(N2CCN(C(=O)CC#N)CC2)c1C#Cc1ccc(N)nc1 [Example G-3]	0.55	0.091	0.06
Cc1ncnc(N2CCC(CC(C)(C)O)CC2)c1C#Cc1ccc(N)nc1 [Example B-13]	0.051	0.018	0.029
CCc1ncnc(N2CCn3c(C)cnc3C2)c1C#Cc1ccc(N)nc1 [Example B-78]	0.101	0.031	0.072
Cc1ncnc(N2CC[S+]([O-])CC2)c1C#Cc1ccc(N)nc1 [Example B-3]	0.501	0.083	0.199
Cc1ncnc(N2CCC3(CCN(C)C3=O)CC2)c1C#Cc1ccc(N)nc1 [Example B-75]	0.092	0.01	0.048
CCc1ncnc(N2CCC(C)(O)CC2)c1C#Cc1ccc(C)nc1 [Example B-73]	0.16	0.03	0.084
CCc1ncnc(N2CCN(C(=O)C3CC3)CC2)c1C#Cc1ccc(N)nc1 [Example G-4]	0.206	0.113	0.046
Cc1ncnc(N2CCC(O)C(C)C2)c1C#Cc1ccc(N)nc1 (stereo not drawn) [Example B-67]	0.174	0.043	0.09
CCc1ncnc(N2CCCC2)c1C#Cc1ccc(N)nc1 [Example B-58]	0.492	0.042	0.131
Cc1ncnc(N2CCN(C(=O)C3CCC3)CC2)c1C#Cc1ccc(N)nc1 [Example G-8]	0.206	0.064	0.022
